Source: patent publication US10441599B2, “Pharmaceutical composition containing Ginkgolide B and blood platelet prostaglandin cyclooxygenase inhibitor and method for preparation thereof and use thereof” (priority 2014, dated 2019)

How the values were obtained:
Assay type in all cases: in vivo, Japanese large-ear white rabbits
[1] = system: rabbit β-thromboglobulin (β-TG); test: Determination of β-TG level in serum (ELISA) after PAF induction; settings: for level of β-TG compared with the saline group: p<0.01, p<0.05; for β-TG level: rabbits 5.0 mg/kg once daily 7 days, serum after PAF induction, x ± s, n = 8
From the text: (§1) 128 Japanese large-ear white rabbits with a weight of (2.0±0.2) kg, half male and half female, were provided by Chongqing Medical University Experimental Animal Center [animal certification number: XCXK (Yu) 20020001]. […] ELISA kit (FOCUS, lot number: 20130301). TYXN-96 multifunctional intelligent aggregometer (Shanghai General Technique Research Institute); Scanning electron microscope […]-800 Absorbance Reader (BioTek Instruments, Inc.). 128 Japanese large-ear white rabbits were randomly assigned to 16 groups, with 8 rabbits in each group: […] All groups were administered with a clinically used route and dosage for 7 days continuously. […] The plasma was rested at 4° C. for 4 hours, and 200 μL of serum was taken for detection. The specific operation is carried out according to the kit specification, and the result was read by the Absorbance Reader.

[2] = system: rabbit platelet aggregation induced by PAF; test: Platelet aggregation rate induced by PAF in platelet-rich plasma of dosed rabbits; settings: for Platelet aggregation inhibition rate (%) / platelet aggregation rate, 1 min / platelet aggregation rate, 5 min / maximum platelet aggregation rate (MAX): rabbits 5.0 mg/kg once daily 7 days; for Platelet aggregation inhibition rate (%) / maximum platelet aggregation rate (MAX): PAF-induced; for Platelet aggregation inhibition rate (%): relative to saline group; for platelet aggregation rate, 1 min / platelet aggregation rate, 5 min / maximum platelet aggregation rate (MAX): PRP, x ± s, n = 8; for platelet aggregation rate, 1 min: 1 min after addition of 10 μL PAF; for platelet aggregation rate, 5 min: 5 min after addition of 10 μL PAF; for maximum platelet aggregation rate comparing with the saline group: under the induction of PAF, p<0.01, p<<0.05
Protocol: 128 Japanese large-ear white rabbits with a weight of (2.0±0.2) kg, half male and half female, were provided by Chongqing Medical University Experimental Animal Center [animal certification number: XCXK (Yu) 20020001].
Platelet activation factors (PAF) (cayman, lot number: 011219) was dissolved in the Tris-NaCl solution containing 0.25% of calf serum albumin at a pH of 7.6, to a final concentration of 3.6 nmoL/L; sodium citrate (Beijing Zhongshanjinqiao Biotechnology Company, lot number: 20130117) dissolved in the distilled water with 3.8% concentration; rabbit β-thromboglobulin (β-TG) ELISA kit (FOCUS, lot number: 20130224), rabbit platelet factor 4 (PF-4) (lot number: ELISA kit (FOCUS, lot number: 20130301). TYXN-96 multifunctional intelligent aggregometer (Shanghai General Technique Research Institute); Scanning electron microscope S-3000 N (Hitachi Limited); ELX-800 Absorbance Reader (BioTek Instruments, Inc.).
128 Japanese large-ear white rabbits were randomly assigned to 16 groups, with 8 rabbits in each group: (1) Saline group, (2) Ginkgolide B group, (3) Aspirin group, (4) Jinnaduo group, (5) Composition 1 group, (6) Composition 2 group, (7) Composition 3 group, (8) Composition 4 group, (9) Composition 5 group, (10) Composition 6 group, (11) Composition 7 group, (12) Composition 8 group, (13) Composition 9 group, (14) Composition 10 group, (15) Composition 11 group, (16) Composition 12 group. All groups were administered with a clinically used route and dosage for 7 days continuously.
After 7 days of administration, 10.5 ml of blood was taken from the heart of each animal, wherein 1.5 ml of plasma was used for taking serum and the rest 9 ml of plasma was subjected to 3.8% sodium citrate at 1:9 for anticoagulation, centrifuging for 10 minutes at 800 r/min, and taking the supernatant to obtain platelet-rich plasma (PRP).), wherein 100 μl of the PRP was taken for electron microscope examination, and the rest of the PRP was used for detecting of the platelet aggregation rate; the remaining portion was centrifuged for 15 min at a speed of 3000 r/min, and platelet-depleted plasma (PPP) was obtained. PPP was used to adjust the number of platelet in PRP, to be at 360×10^9/L. The platelet aggregation rate and maximum platelet aggregation rate was studied and recorded after 1 min, 5 min of addition of 10 μL of PAF.
The statistical analysis is carried out using SPSS 18.0 software, and the platelet aggregation rates, the percentage of types of platelet morphology and the concentration of PF-4 and β-TG were analyzed using two-sample t-test. P-values<0.05 were considered statistically significant.

[3] = system: rabbit platelet factor 4 (PF-4); test: Determination of PF-4 level in serum (ELISA) after PAF induction; settings: for PF-4 level: rabbits 5.0 mg/kg once daily 7 days, serum after PAF induction, x ± s, n = 8
From the text: as §1

[4] = system: platelets (morphology types after PAF); test: Scanning electron microscopy study of platelet morphology after addition of PAF; settings: for Types of morphology (%): Aggregated / Types of morphology (%): Circle / Types of morphology (%): Flat / Types of morphology (%): Tree like: rabbits 5.0 mg/kg once daily 7 days, PRP + PAF, SEM, 100 platelets, x ± s, n = 8; for Aggregated type platelets under scanning electron microscope: under induction of PAF, 2000-fold SEM
Protocol: 128 Japanese large-ear white rabbits with a weight of (2.0±0.2) kg, half male and half female, were provided by Chongqing Medical University Experimental Animal Center [animal certification number: XCXK (Yu) 20020001]. 128 Japanese large-ear white rabbits were randomly assigned to 16 groups, with 8 rabbits in each group: […] All groups were administered with a clinically used route and dosage for 7 days continuously. […] The types of platelet under the electron microscope includes: […] (3) Flat type has a dense core in the center and a wide transparent peripheral zone which has a smooth periphery or small bulges. (4) Aggregated-type is usually composed of several to dozens of platelets, with different sizes of the aggregates, wherein the platelets are mutually connected, some of the platelets are integrally fused into a whole, and the foot processes of the peripheral part are prominent.

How did the “level of β-TG compared with the saline group” value [1] turn out when `CC(=O)Oc1ccccc1C(=O)O` [Aspirin, acetylsalicylic acid] was run?
The value was “didn't decrease significantly”.

And the β-TG level [1]?
Its β-TG level is 1.504 ± 0.244 µg/mL.

What about the “Platelet aggregation inhibition rate (%)” value [2] of the same compound?
The value was 31.53%.

What about the “platelet aggregation rate, 1 min” value [2] of the same compound?
Its value is 25.28 ± 5.06.

And the “platelet aggregation rate, 5 min” value [2]?
Its value is 36.89 ± 5.53.

And the “maximum platelet aggregation rate (MAX)” value [2]?
The value was 48.08 ± 5.87.

And the “maximum platelet aggregation rate comparing with the saline group” value [2]?
Its value is “significant difference”.

What about the PF-4 level [3] of the same compound?
Its PF-4 level is 1.489 ± 0.228 µg/mL.

What about the “Types of morphology (%): Aggregated” value [4] of the same compound?
Its value is 54.0 ± 14.3 %.

And the “Types of morphology (%): Circle” value [4]?
The value was 5.8 ± 2.6%.

And the “Types of morphology (%): Flat” value [4]?
The value was 25.5 ± 8.4 %.

And the “Types of morphology (%): Tree like” value [4]?
The value was 14.7 ± 7.0 %.

And the “Aggregated type platelets under scanning electron microscope” value [4]?
Its value is “increased number of Aggregated type platelets”.

`CC1C(=O)OC2C(O)C34C5CC(C(C)(C)C)C36C(OC(=O)C6O)OC4(C(=O)O5)C12O` (stereo not drawn) [Ginkgolide B] was tested. Which “level of β-TG compared with the saline group” value [1] did it give?
The value was “decreased significantly”.

What about the β-TG level [1] of the same compound?
Its β-TG level is 1.247 ± 0.184 µg/mL.

What about the “Platelet aggregation inhibition rate (%)” value [2] of the same compound?
Its value is 44.66%.

What about the “platelet aggregation rate, 1 min” value [2] of the same compound?
Its value is 21.36 ± 4.15.

What about the “platelet aggregation rate, 5 min” value [2] of the same compound?
Its value is 33.54 ± 5.48.

And the “maximum platelet aggregation rate (MAX)” value [2]?
Its value is 38.86 ± 4.74.

And the “maximum platelet aggregation rate comparing with the saline group” value [2]?
The value was “significant difference”.

And the “level of PF-4 compared with the saline group” value ([3]; p<0.01, p<0.05)?
The value was “decreased significantly”.

What about the PF-4 level [3] of the same compound?
The PF-4 level was 1.264 ± 0.215 µg/mL.

What about the “Types of morphology (%): Aggregated” value [4] of the same compound?
Its value is 22.3 ± 9.6 %.

What about the “Types of morphology (%): Circle” value [4] of the same compound?
The value was 31.6 ± 6.4 %.

What about the “Types of morphology (%): Flat” value [4] of the same compound?
The value was 46.1 ± 8.3 %.

And the “Types of morphology (%): Tree like” value [4]?
The value was 15.8 ± 6.8 %.

And the “Aggregated type platelets under scanning electron microscope” value [4]?
Its value is “rarely seen”.
